Test results as given in ChEMBL document CHEMBL6092167, “Phosphorylation as an Effective Tool to Improve Stability and Reduce Toxicity of Antimicrobial Peptides” (J Med Chem, 2024).
Converted amounts (≈) assume the structure as drawn. Non-standard residues stand in square brackets, D forms with d. Residues, ends and D or L forms follow the SMILES beside them. Bip = N[C@@H](Cc1ccc(-c2ccccc2)cc1)C(=O)O; pY = N[C@@H](Cc1ccc(OP(=O)(O)O)cc1)C(=O)O

How the values were obtained:
Bacillus subtilis = experiment: Antibacterial activity against Bacillus subtilis ATCC 23857 incubated for 18 to 24 hrs by broth microdilution method; type: functional; conditions: time 18-24 hrs
Pseudomonas aeruginosa [1] = experiment: Antibacterial activity against Pseudomonas aeruginosa ATCC 27853 incubated for 18 to 24 hrs by broth microdilution method; type: functional; conditions: time 18-24 hrs
Escherichia coli [2] = experiment: Antibacterial activity against Escherichia coli 850 incubated for 18 to 24 hrs by broth microdilution method; type: functional; conditions: time 18-24 hrs
Staphylococcus aureus [3] = experiment: Antibacterial activity against Staphylococcus aureus 794 incubated for 18 to 24 hrs by broth microdilution method; type: functional; conditions: time 18-24 hrs
Escherichia coli [4] = experiment: Antibacterial activity against Escherichia coli ATCC 25922 incubated for 18 to 24 hrs by broth microdilution method; type: functional; conditions: time 18-24 hrs
[5] = Hemolytic activity in mouse erythrocyte incubated for 1 hr by microplate reader assay; type: toxicity, cell-based
Pseudomonas aeruginosa [6] = experiment: Antibacterial activity against Pseudomonas aeruginosa 119 incubated for 18 to 24 hrs by broth microdilution method; type: functional; conditions: time 18-24 hrs
[7] = Cytotoxicity against HEK293T cells incubated for 1 hr by fluorescence based microplate reader assay; type: toxicity, cell-based, HEK-293T; conditions: human
Staphylococcus aureus [8] = experiment: Antibacterial activity against methicillin resistant Staphylococcus aureus 48 incubated for 18 to 24 hrs by broth microdilution method; type: functional; conditions: time 18-24 hrs
Staphylococcus aureus [9] = experiment: Antibacterial activity against Staphylococcus aureus ATCC 25923 incubated for 18 to 24 hrs by broth microdilution method; type: functional; conditions: time 18-24 hrs
Escherichia coli [10] = experiment: Antibacterial activity against Escherichia coli 780 incubated for 18 to 24 hrs by broth microdilution method; type: functional; conditions: time 18-24 hrs
Klebsiella pneumoniae [11] = experiment: Antibacterial activity against Klebsiella pneumoniae ATCC 700603 incubated for 18 to 24 hrs by broth microdilution method; type: functional; conditions: time 18-24 hrs
Staphylococcus aureus [12] = experiment: Antibacterial activity against methicillin resistant Staphylococcus aureus ATCC 33591 incubated for 18 to 24 hrs by broth microdilution method; type: functional; conditions: time 18-24 hrs
Acinetobacter baumannii = experiment: Antibacterial activity against Acinetobacter baumannii ATCC 19606 incubated for 18 to 24 hrs by broth microdilution method; type: functional; conditions: time 18-24 hrs
Klebsiella pneumoniae [13] = experiment: Drug resistance development in Klebsiella pneumoniae ATCC 700603 assessed as fold increase in MIC measured after 7 passage; type: functional

## CC(C)C[C@H](NC(=O)[C@H](CC(C)C)NC(=O)[C@H](Cc1ccc(OP(=O)(O)O)cc1)NC(=O)[C@H](CCCCN)NC(=O)[C@H](CC(C)C)NC(=O)[C@H](CCCNC(=N)N)NC(=O)[C@H](CCCCN)NC(=O)[C@H](Cc1c[nH]c2ccccc12)NC(=O)[C@H](CC(C)C)NC(=O)CN)C(N)=O (H-GLWKRLK[pY]LL-NH2)
Bacillus subtilis
  MIC: 8 µM (≈ 10.9 µg/mL)
Pseudomonas aeruginosa [1]
  MIC: 32 µM (≈ 43.8 µg/mL)
Escherichia coli [2]
  MIC: 16 µM (≈ 21.9 µg/mL)
Staphylococcus aureus [3]
  MIC: 8 µM (≈ 10.9 µg/mL)
Escherichia coli [4]
  MIC: 8 µM (≈ 10.9 µg/mL)
[5]
  MHC: 268.04 µM
Pseudomonas aeruginosa [6]
  MIC: 64 µM (≈ 87.6 µg/mL)
[7]
  CC50 at 1 h: 148 µM
Staphylococcus aureus [8]
  MIC: 16 µM (≈ 21.9 µg/mL)
Staphylococcus aureus [9]
  MIC: 16 µM (≈ 21.9 µg/mL)
Escherichia coli [10]
  MIC: 8 µM (≈ 10.9 µg/mL)
Klebsiella pneumoniae [11]
  MIC: 16 µM (≈ 21.9 µg/mL)
Staphylococcus aureus [12]
  MIC: 16 µM (≈ 21.9 µg/mL)
Acinetobacter baumannii
  MIC: 8 µM (≈ 10.9 µg/mL)

## NC[C@H]1O[C@H](O[C@H]2[C@H](O)[C@@H](O[C@H]3O[C@H](CO)[C@@H](O)[C@H](N)[C@H]3O)[C@H](N)C[C@@H]2N)[C@H](O)[C@@H](O)[C@@H]1O [KANAMYCIN]
Bacillus subtilis
  MIC: < 1 µM
Pseudomonas aeruginosa [1]
  MIC: > 128 µM
Klebsiella pneumoniae [13]
  fold change (FC): 128
Escherichia coli [2]
  MIC: > 128 µM
Staphylococcus aureus [3]
  MIC: 64 µM (≈ 31 µg/mL)
Escherichia coli [4]
  MIC: 8 µM (≈ 3.88 µg/mL)
Pseudomonas aeruginosa [6]
  MIC: 64 µM (≈ 31 µg/mL)
Staphylococcus aureus [8]
  MIC: > 128 µM
Staphylococcus aureus [9]
  MIC: < 1 µM
Escherichia coli [10]
  MIC: 32 µM (≈ 15.5 µg/mL)
Klebsiella pneumoniae [11]
  MIC: 32 µM (≈ 15.5 µg/mL)
Staphylococcus aureus [12]
  MIC: > 128 µM
Acinetobacter baumannii
  MIC: 8 µM (≈ 3.88 µg/mL)

## CC(C)C[C@H](NC(=O)[C@H](CC(C)C)NC(=O)[C@H](Cc1ccc(OP(=O)(O)O)cc1)NC(=O)[C@H](CCCCN)NC(=O)[C@H](Cc1ccc(-c2ccccc2)cc1)NC(=O)[C@H](CCCNC(=N)N)NC(=O)[C@H](CCCCN)NC(=O)[C@H](CC(C)C)NC(=O)[C@H](CC(C)C)NC(=O)CN)C(N)=O (H-GLLKR[Bip]K[pY]LL-NH2)
Bacillus subtilis
  MIC: 8 µM (≈ 11.2 µg/mL)
Pseudomonas aeruginosa [1]
  MIC: 32 µM (≈ 45 µg/mL)
Escherichia coli [2]
  MIC: 16 µM (≈ 22.5 µg/mL)
Staphylococcus aureus [3]
  MIC: 8 µM (≈ 11.2 µg/mL)
Escherichia coli [4]
  MIC: 8 µM (≈ 11.2 µg/mL)
[5]
  MHC: 131.69 µM
Pseudomonas aeruginosa [6]
  MIC: 32 µM (≈ 45 µg/mL)
[7]
  CC50 at 1 h: 110 µM
Staphylococcus aureus [8]
  MIC: 8 µM (≈ 11.2 µg/mL)
Staphylococcus aureus [9]
  MIC: 16 µM (≈ 22.5 µg/mL)
Escherichia coli [10]
  MIC: 16 µM (≈ 22.5 µg/mL)
Klebsiella pneumoniae [11]
  MIC: 16 µM (≈ 22.5 µg/mL)
Staphylococcus aureus [12]
  MIC: 8 µM (≈ 11.2 µg/mL)
Acinetobacter baumannii
  MIC: 8 µM (≈ 11.2 µg/mL)

## H-GLWKRLKTLL-NH2
Bacillus subtilis
  MIC: 4 µM
Pseudomonas aeruginosa [1]
  MIC: 4 µM
Escherichia coli [2]
  MIC: 8 µM
Staphylococcus aureus [3]
  MIC: 8 µM
Escherichia coli [4]
  MIC: 8 µM
[5]
  MHC: > 256 µM
Pseudomonas aeruginosa [6]
  MIC: 16 µM
[7]
  CC50 at 1 h: > 128 µM
Staphylococcus aureus [8]
  MIC: 8 µM
Staphylococcus aureus [9]
  MIC: 16 µM
Escherichia coli [10]
  MIC: 8 µM
Klebsiella pneumoniae [11]
  MIC: 8 µM
Staphylococcus aureus [12]
  MIC: 8 µM
Acinetobacter baumannii
  MIC: 32 µM

## CC(C)C[C@H](NC(=O)[C@H](CC(C)C)NC(=O)[C@@H](NC(=O)[C@H](CCCCN)NC(=O)[C@H](Cc1ccc(-c2ccccc2)cc1)NC(=O)[C@H](CCCNC(=N)N)NC(=O)[C@H](CCCCN)NC(=O)[C@H](CC(C)C)NC(=O)[C@H](CC(C)C)NC(=O)CN)[C@@H](C)O)C(N)=O (H-GLLKR[Bip]KTLL-NH2)
Bacillus subtilis
  MIC: 4 µM (≈ 5.05 µg/mL)
Pseudomonas aeruginosa [1]
  MIC: 4 µM (≈ 5.05 µg/mL)
Escherichia coli [2]
  MIC: 8 µM (≈ 10.1 µg/mL)
Staphylococcus aureus [3]
  MIC: 8 µM (≈ 10.1 µg/mL)
Escherichia coli [4]
  MIC: 8 µM (≈ 10.1 µg/mL)
[5]
  MHC: 145.56 µM
Pseudomonas aeruginosa [6]
  MIC: 16 µM (≈ 20.2 µg/mL)
[7]
  CC50 at 1 h: 127 µM
Staphylococcus aureus [8]
  MIC: 8 µM (≈ 10.1 µg/mL)
Staphylococcus aureus [9]
  MIC: 16 µM (≈ 20.2 µg/mL)
Escherichia coli [10]
  MIC: 8 µM (≈ 10.1 µg/mL)
Klebsiella pneumoniae [11]
  MIC: 8 µM (≈ 10.1 µg/mL)
Staphylococcus aureus [12]
  MIC: 8 µM (≈ 10.1 µg/mL)
Acinetobacter baumannii
  MIC: 16 µM (≈ 20.2 µg/mL)
